Experimental data reported in PubChem BioAssay (NCI).
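Exposure lasted 48 hours, with cells grown in 96-well plates and compounds tested at five concentrations. Abbreviation: GI50, concentration required for 50% inhibition of growth. The concentration for full growth arrest is given as TGI.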

Experiments:
Test in all cases: DTP human tumour cell line panel, 48 h
SF-539 CNS = system: SF-539 CNS
UO-31 renal = system: UO-31 renal
LOX IMVI melanoma = system: LOX IMVI melanoma
BT-549 breast = system: BT-549 breast
SW-620 colon = system: SW-620 colon
HOP-62 NSCLC = system: HOP-62 NSCLC
NCI-H23 lung = system: NCI-H23 lung
NCI/ADR-RES ovarian = system: NCI/ADR-RES ovarian

| Structure (SMILES) | GI50 (SF-539 CNS) | TGI (SF-539 CNS) | GI50 (UO-31 renal) | TGI (UO-31 renal) | GI50 (LOX IMVI melanoma) | TGI (LOX IMVI melanoma) | GI50 (BT-549 breast) | TGI (BT-549 breast) | GI50 (SW-620 colon) | TGI (SW-620 colon) | GI50 (HOP-62 NSCLC) | TGI (HOP-62 NSCLC) | GI50 (NCI-H23 lung) | TGI (NCI-H23 lung) | GI50 (NCI/ADR-RES ovarian) | TGI (NCI/ADR-RES ovarian) |
| --- | --- | --- | --- | --- | --- | --- | --- | --- | --- | --- | --- | --- | --- | --- | --- | --- |
| Cn1c(Cc2ccccc2)nc2cc3ccccc3cc21 | 20.6 µM | 37.4 µM | 25.7 µM | > 100 µM | 24 µM | 64.7 µM | 21.2 µM | 45.3 µM | 17.2 µM | 38.3 µM | 38.3 µM | > 100 µM | 43 µM | > 100 µM | 24.8 µM | 68.7 µM |
| Cc1c(N(C(=O)c2cc(-c3cc(Cl)ccc3C(=O)N3Cc4ccccc4C[C@H]3CN3CCOCC3)n(C)c2C)c2ccc(O)cc2)cc(C#N)n1C | 20.6 µM | > 100 µM | 15.6 µM | > 100 µM | 14.6 µM | > 100 µM | 6.41 µM | 26.5 µM | 34.4 µM | > 100 µM | 25.8 µM | > 100 µM | 35.6 µM | > 100 µM | 50.6 µM | > 100 µM |
| OCC1OC(O)C(N=Cc2ccc3c(c2)OCO3)C(O)C1O (centres undefined) |  | > 100 µM |  | > 100 µM |  | > 100 µM |  | > 100 µM |  | > 100 µM |  | > 100 µM |  | > 100 µM |  | > 100 µM |
| CCOC(=O)c1ccc2[nH]c(Cc3[nH]c4ccc(C(=O)OCC)cc4c3C)c(C)c2c1 | 1.37 µM | 13.3 µM | 7.26 µM | 30.8 µM | 0.384 µM | 5.72 µM | 11.6 µM | 37 µM | 1.41 µM | 15.6 µM | 2.58 µM | 14.7 µM | 6.35 µM | 25.8 µM | 2.52 µM | 18.5 µM |
| CC(=O)O[C@H]1C(=O)[C@@]2(C)[C@H]([C@H](OC(=O)c3ccccc3)[C@]3(O)C[C@H](OC(=O)[C@H](OC(=O)CCC(=O)OC4CCC(S/N=C(N)/N=C(\N)N(C)C)CC4)[C@@H](NC(=O)c4ccccc4)c4ccccc4)C(C)=C1C3(C)C)[C@]1(OC(C)=O)CO[C@@H]1C[C@@H]2O (some centres undefined) | 0.00847 µM | 0.0255 µM | 0.619 µM | > 50 µM | 0.00748 µM | > 50 µM | 0.0219 µM | > 50 µM | 0.0119 µM | > 50 µM | 0.0133 µM | > 50 µM | 0.0166 µM | > 50 µM | 1.82 µM | > 24.4 µM |
| CCC(=O)Nc1ccc2c(c1)CN1C(=O)c3ccccc3C1=N2 | > 100 µM | > 100 µM | > 100 µM | > 100 µM | > 100 µM | > 100 µM | > 100 µM | > 100 µM | > 100 µM | > 100 µM | > 100 µM | > 100 µM | > 100 µM | > 100 µM | > 100 µM | > 100 µM |
| COc1ccc(C(=O)c2ccc(OC)cc2OC)cc1 | 2.81 µM | 22.4 µM | 2.7 µM | 39.6 µM | 4.47 µM | > 100 µM | 4.06 µM | > 100 µM | 2.96 µM | > 100 µM | 2.6 µM | > 100 µM | 3.79 µM | > 100 µM | 1.59 µM | 5.98 µM |
